How the values were obtained:
[1] = Flammability / flash point (ASTM D3828, NFPA 30); assay type: physicochemical
Procedure: The flash pint of a thermal management fluid refers the lowest temperature at which vapors of the liquid will keep burning after the ignition source is removed as determined in accordance with ASTM D3828.
“Non-flammable” in the context of a thermal management composition or fluid means compounds or compositions which are determined to be non-flammable. The flash point of a thermal management composition or fluid refers the lowest temperature at which vapors of the composition will keep burning after the ignition source is removed as determined in accordance with ASTM D3828.

[2] = Acute inhalation toxicity (OECD Guideline No. 403); assay type: in vivo; conditions: statement in words
Text: LC50 is a measure of the acute toxicity of a compound. The acute inhalation toxicity of a compound can be assessed using the method described in the OECD Guideline for Testing of Chemicals No. 403 “Acute Inhalation Toxicity” (2009), Method B.2. (Inhalation) of Commission Regulation (EC) No. 440/2008.

[3] = Electrical conductivity (ASTM D 2624); assay type: physicochemical; conditions: at 22° C.
Procedure: (§1) Applicants have unexpectedly discovered that TFMCB not only meets the challenging performance requirements for high temperature heat transfer applications and for electronic cooling but also satisfies exacting environmental and safety requirements. […] In particular, applicants have determined that TFMCB has a measured dielectric constant of 20 at 22° C. as determined by ASTM D2477-07 and has a measured electrical conductivity of less than 10 nS/cm at 22° C. as determined by ASTM D 2624.

[4] = Dielectric constant (ASTM D2477-07); assay type: physicochemical; conditions: at 22° C.
Procedure: as §1

SMILES: FC(F)(F)C1(F)CCC1(F)F (centres unmarked) [TFMCB, 1-trifluoromethyl-1,2,2-trifluorocyclobutane]
- flammability [1]: non-flammable
- flash point ([1]; ASTM D3828): no flash point below 100° F
- toxicity [2]: low levels of toxicity
- electrical conductivity [3]: less than 10 nS/cm
- dielectric constant [4]: 20
